Assay in all cases: DTP human tumour cell line panel, 48 h
Assay [1] has as its system K-562 leukemia.
Assay [2] relates to M14 melanoma.
For assay [3], the system named is MCF7 breast.
For assay [4], the system named is MOLT-4 leukemia.
The test system of assay [5] is NCI/ADR-RES ovarian.
Assay [6] concerns SN12C renal.
Assay [7] has as its system T-47D breast.
Assay [8] relates to TK-10 renal.
The subject of assay [9] is UACC-62 melanoma.
The test system of assay [10] is UO-31 renal.

Molecules are shown by their SMILES. Where “and” joins values, the source holds several entries; their conditions need not be identical. Equal values may be shown once.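 Growth conditions: 96-well plates. Treatment: test compound, 48 hours, 5 concentrations. Analysis: linear interpolation between bracketing concentrations; unreached endpoints set to highest concentration. GI50 = concentration required for 50% inhibition of growth. TGI denotes the concentration required for complete inhibition of growth.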

Take `COc1cc(=O)oc(/C=C/C=C/C=C/C(C)=C\C2(C)OC(C)C(C)(O)C2O)c1C` (configuration not stated): the TGI in [1], in assay [2], in assay [3], in [4], in [5] and in [6] was more than 100 µM throughout. Moreover, the TGI in [7], in [8], in assay [9] and in [10] was more than 100 µM throughout.
`N#Cc1ccc(NC(=O)Nc2nc3ccc(OC(F)(F)F)cc3s2)cc1`: the GI50 is 0.534 µM in [1]; 2.37 µM in assay [2]; 1 µM in assay [3]; 1.88 µM in [4]; 1.55 µM in assay [5]; 1.58 µM in assay [6]. Moreover, the GI50 in [7] is 0.428 µM; in assay [8] it was 1.22 µM; in assay [9], 0.737 µM; in assay [10] it was 1.67 µM. In addition, the TGI in [1] was 26.1 µM; in assay [2], 6.53 µM; in assay [3] it was 11.6 µM; in assay [4] it was 13.4 µM; in [5], 8.39 µM; in [6], 8.64 µM. Also, the TGI in [7] turned out to be 5.8 µM; in [8] it was 7.03 µM; in [9], 3.87 µM; in assay [10], 7.92 µM.
Consider `CCC1(N)C(=O)OCc2c1cc1n(c2=O)Cc2cc3ccccc3nc2-1` (configuration not stated), for which the GI50 in assay [1] is 5.36 µM; in assay [3], 2.82 µM; in assay [4], 1.83 µM; in [5], 7.18 µM; in assay [6], 6.27 µM; in [7], 5.78 µM. Also, the GI50 was 51 µM in assay [8], 3.89 µM in [9] and 4.43 µM in assay [10]. Further, the TGI in [1] was more than 100 µM; in assay [2], 54 µM and > 100 µM; in assay [3], more than 100 µM; in [4] it was more than 41.7 µM; in assay [5], > 54.1 µM and 61.3 µM; in [6], more than 100 µM. For the same compound, the TGI in assay [7] is > 100 µM and 18.4 µM; in assay [8], more than 100 µM; in assay [9], 20.5 µM and 14.1 µM; in assay [10] it was 20.9 µM and 17.4 µM.
As to `O=S(=O)(NCCNc1cc(-c2cn(-c3ccccc3)nc2-c2cccc(O)c2)ccn1)c1ccc(Br)cc1`, the GI50 is 1.98 µM in [1]; 2.02 µM in assay [2]; 2.33 µM in assay [3]; 2.21 µM in assay [4]; 3.14 µM in assay [5]; 2.14 µM in assay [6]. In addition, the GI50 is 2.22 µM in assay [7], 2.78 µM in assay [8], 1.81 µM in assay [9] and 2.19 µM in assay [10]. For the same compound, the TGI is 5.49 µM in assay [1]; 5.04 µM in assay [2]; 6.91 µM in assay [3]; 5.98 µM in assay [4]; 12.5 µM in [5]; 4.78 µM in assay [6]. For the same compound, the TGI in assay [7] was found to be 7.71 µM; in [8] it was 9.65 µM; in assay [9] it was 3.87 µM; in assay [10] it was 6.96 µM.
Take `COc1ccc(C(=O)c2cc(C)c(OC)c(C)c2)c(OC)c1N(C(=O)CCl)C(=O)CCl`: the GI50 in assay [1] is 0.0557 µM; in [2], 0.0365 µM; in [3] it was 0.0657 µM; in assay [4] it was 0.172 µM; in [5], 0.0311 µM; in assay [6], 0.0831 µM. For the same compound, the GI50 is 0.0445 µM in assay [7], 13.4 µM in [8], 0.067 µM in assay [9] and 0.0829 µM in assay [10]. For the same compound, the TGI was more than 100 µM in assay [1]; 0.531 µM in assay [2]; more than 38.6 µM in assay [3]; 24.2 µM in [4]; 1.48 µM in assay [5]; 20.9 µM in assay [6]. For the same compound, the TGI in assay [7] is 44.4 µM; in assay [8], more than 100 µM; in assay [9], 23.5 µM; in [10], 24.9 µM.
As for `CCCC(=O)Nc1c(I)cc(I)c(CC(CC)C(=O)O)c1I` (configuration not stated), the GI50 in assay [1], in assay [2], in assay [3], in assay [4], in assay [5] and in assay [6] was more than 100 µM throughout. For the same compound, the GI50 in assay [7], in assay [8], in assay [9] and in [10] was more than 100 µM throughout. Besides, the TGI in assay [1], in [2], in assay [3], in [4], in assay [5] and in assay [6] was more than 100 µM in each case. The TGI in [7], in assay [8], in assay [9] and in assay [10] was more than 100 µM each time.
On to `CC(C)=CCc1c(O)c(C(=O)CC(C)C)c(O)c2c(-c3ccccc3)cc(=O)oc12`, for which the GI50 is 3.05 µM in [1]; 11.5 µM in assay [2]; 11.8 µM in [3]; 10.3 µM in assay [4]; 9.25 µM in assay [5]; 6.07 µM in assay [6]. In addition, the GI50 in [7] is 11.3 µM; in assay [8], 9.98 µM; in assay [9] it was 2.2 µM; in assay [10], 8.85 µM. In addition, the TGI in [1], in [2], in assay [3], in assay [4], in [5] and in assay [6] was more than 50 µM in each case. Also, the TGI in assay [7] is 42.1 µM; in assay [8], more than 50 µM; in assay [9], 13.5 µM; in [10], more than 50 µM.
For `CC1(C)OC2COC(c3[nH]nc4c(=O)[nH]c(=O)[nH]c34)C2O1` (configuration not stated), the TGI in assay [1], in assay [2], in assay [3], in assay [4], in assay [5] and in assay [6] was more than 100 µM in each case. In addition, the TGI in assay [7], in assay [8], in assay [9] and in [10] was more than 100 µM in each case.
Turning to `CCN(CC)c1ccc(/C=N/NC(=O)c2ccccc2Nc2ccnc(C(F)(F)F)c2)c(O)c1`, the GI50 in [1] was 0.384 µM; in assay [2] it was 0.175 µM; in assay [3] it was 0.248 µM; in [4], 0.102 µM; in assay [5], 0.273 µM; in assay [6], 0.278 µM. For the same compound, the GI50 in assay [7] is 0.471 µM; in [8], 0.365 µM; in assay [9], 0.206 µM; in assay [10], 0.112 µM. The TGI in assay [1] was more than 100 µM; in [2], 1.19 µM; in assay [3], more than 100 µM; in assay [4] it was 4.2 µM; in assay [5], 14 µM; in [6], more than 100 µM. Besides, the TGI in assay [7] is more than 100 µM; in [8], more than 67.4 µM; in [9], 0.852 µM; in assay [10], 5.76 µM.
Turning to `O=C(O)CNC(=O)C1NC(C(F)(F)F)(C(F)(F)F)OC1(C(F)(F)F)C(F)(F)F` (configuration not stated), the TGI in assay [1], in [2], in assay [3], in assay [4], in [5] and in [6] was more than 100 µM throughout. Further, the TGI in assay [7], in [8], in [9] and in assay [10] was more than 100 µM throughout.
Turning to `Clc1ccc(COC(Cn2ccnc2)c2ccc(Cl)cc2Cl)c(Cl)c1` (configuration not stated), the TGI is 21.2 µM and 16.4 µM in [1]; 14.1 µM and 26.6 µM and 22.4 µM in assay [2]; 12.4 µM and 27.8 µM and 33.3 µM in assay [3]; 15.1 µM and 22.2 µM and 13.9 µM in assay [4]; 13.3 µM and 25.2 µM and 16 µM in [5]; 11.7 µM and 27.1 µM and 20.7 µM in assay [6]. For the same compound, the TGI in assay [7] is 8.33 µM and 24.6 µM and 21.6 µM; in [8], 22.9 µM and 29.6 µM; in [9], 10.2 µM and 25 µM and 23.3 µM; in assay [10] it was 12.4 µM and 16.5 µM and 13.6 µM. The GI50 in assay [2] was 3.73 µM; in assay [3], 3.57 µM; in assay [5], 3.06 µM; in [6] it was 2.63 µM; in assay [7], 2 µM; in assay [8] it was 10.7 µM. For the same compound, the GI50 is 2.06 µM in assay [9] and 2.3 µM in assay [10].
Regarding `COCC(=O)NC/C=C/c1ccc2ncnc(Nc3ccc(Oc4ccc(C)nc4)c(C)c3)c2c1`, the GI50 was 17.8 µM in assay [1]; 11.4 µM in assay [2]; 4.11 µM in assay [3]; 13.8 µM in assay [4]; 17.2 µM in [5]; 12 µM in assay [6]. For the same compound, the GI50 in assay [7] was 1.19 µM; in [8] it was 7.52 µM; in assay [9] it was 10.6 µM; in [10], 7.8 µM. The TGI in assay [1] is more than 91.4 µM; in [2], 31 µM; in [3] it was 32.5 µM; in assay [4], 53.8 µM; in [5] it was 88.8 µM; in assay [6], 35.7 µM. Besides, the concentration for total growth inhibition (TGI) was determined as 13.6 µM in assay [7], 53.9 µM in assay [8], 34 µM in assay [9] and 35.9 µM in assay [10].
With `CCC(=O)Nc1ncnc2ncn(C(=O)CC)c12`, the TGI in assay [1], in assay [2], in assay [3], in [4], in assay [5] and in [6] was more than 100 µM in each case. The TGI in assay [7], in assay [8], in assay [9] and in assay [10] was more than 100 µM throughout.
`CCCc1n(Cc2ccc3ccccc3n2)cc[n+]1Cc1ccc2ccccc2c1`: the GI50 in assay [1] was 0.428 µM; in assay [2] it was 0.637 µM; in assay [3], 0.647 µM; in [4], 0.708 µM; in assay [5], 32.8 µM; in assay [6], 0.478 µM. The GI50 was 0.307 µM in assay [7], 1.21 µM in assay [8], 0.574 µM in [9] and 12 µM in assay [10]. The TGI in [1] is 8.27 µM; in [2] it was 2.76 µM; in assay [3], 4.7 µM; in assay [4], 6.08 µM; in [5] it was more than 100 µM; in assay [6] it was 3.51 µM. Moreover, the TGI in assay [7] came out at 5.55 µM; in assay [8] it was 2.81 µM; in [9], 2.39 µM; in assay [10], 25.3 µM.
In the case of `COc1cccc(NC(=O)c2ccc(NC3=C(Cl)C(=O)N(Cc4ccccc4)C3=O)cc2)c1`, the GI50 in assay [1] was 18.9 µM; in assay [2], 17.3 µM; in assay [3], 3.9 µM; in [4], 2.82 µM; in assay [5], 16.3 µM; in assay [6] it was 17.6 µM. Moreover, the GI50 in assay [7] is 21.5 µM; in assay [8] it was 20.3 µM; in [9], 15.4 µM; in assay [10] it was 18.2 µM. For the same compound, the TGI in assay [1] came out at 47.2 µM; in assay [2], 31.7 µM; in assay [3], 17.8 µM; in assay [4], 16.2 µM; in assay [5], 29.8 µM; in [6] it was 37.1 µM. The TGI in [7] is more than 100 µM; in assay [8] it was 55 µM; in assay [9], 28.8 µM; in assay [10], 62.6 µM.

By TGI is commonly meant the concentration giving total growth inhibition. Higher therefore signals less potent growth arrest. Usually GI50 stands for the concentration at which growth is held to half of that of the control.

Values taken from PubChem BioAssay (NCI).
